The target of the assay is Beta-secretase 1 (Homo sapiens, UniProt P56817). Nature of the assay: Inhibition of human brain beta-secretase, using MBPC125Swe (maltose-binding-protein C-125 Swedish) assay. The assay is classed as biochemical.

Starred links: 1 amine or outer side, 2 acyl side, 3 side chain; linkers in the order of their positions; H or OH if unused. Non-standard residues stand in square brackets, D forms with d. Residues, ends and D or L forms follow the SMILES beside them. ξ: configuration not given here. LeuΨ(ξCHOHCH2)Val = CC(C)C[C@H](N[*:1])C(O)C[C@H](C(=O)[*:2])C(C)C; X2 = CC(=O)O[C@@H](CC(=O)[*:2])[C@H](CC(C)C)N[*:1]; Sta(3ξ) = CC(C)C[C@H](N[*:1])C(O)CC(=O)[*:2]; X3 = CC(C)C[C@H](N[*:1])[C@H](O)CC(=O)[*:2]; X4 = O=C(CC(O)[C@H](Cc1ccccc1)N[*:1])[*:2]; X5 = O=C(CC(O)[C@H](CC1CCCCC1)N[*:1])[*:2]; Sta = CC(C)C[C@H](N)[C@@H](O)CC(=O)O; X1 = CC(C)CC(N[*:1])C(O)CC(=O)[*:2]; Tle = CC(C)(C)[C@H](N)C(=O)O A value given as a limit tells only on which side of the number the result lay.

Beta-secretase 1, sequence (P56817 whole entry): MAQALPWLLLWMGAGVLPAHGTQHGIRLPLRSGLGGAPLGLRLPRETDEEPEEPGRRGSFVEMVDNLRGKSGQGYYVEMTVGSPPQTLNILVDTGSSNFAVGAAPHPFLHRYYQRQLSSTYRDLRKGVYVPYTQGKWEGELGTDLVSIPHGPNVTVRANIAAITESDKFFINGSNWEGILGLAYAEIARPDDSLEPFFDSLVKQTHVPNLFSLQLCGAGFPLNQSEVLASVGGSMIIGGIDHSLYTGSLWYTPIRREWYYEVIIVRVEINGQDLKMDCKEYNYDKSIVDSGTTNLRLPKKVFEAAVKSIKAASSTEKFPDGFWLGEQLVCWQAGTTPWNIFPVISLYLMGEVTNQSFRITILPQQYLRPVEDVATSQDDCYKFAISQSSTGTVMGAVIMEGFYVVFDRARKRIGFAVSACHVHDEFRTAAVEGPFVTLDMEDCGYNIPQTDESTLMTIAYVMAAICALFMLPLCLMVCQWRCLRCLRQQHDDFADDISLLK

For `CSCC[C@H](NC(=O)[C@@H](NC(C)=O)C(C)C)C(=O)NC(CC(C)C)C(O)CC(=O)N[C@H](C(=O)N[C@@H](C)C(=O)N[C@@H](CCC(=O)O)C(=O)N[C@@H](Cc1ccccc1)C(=O)O)[C@H](C)O` (some centres not stated), the IC50 (as a rule, the midpoint of a concentration-inhibition curve) is 100 µM.
`CSCC[C@H](NC(=O)[C@@H](NC(C)=O)C(C)C)C(=O)NC(CC(C)C)C(O)CC(=O)N1CCC[C@@H]1C(=O)N[C@@H](C)C(=O)N[C@@H](CCC(=O)O)C(=O)N[C@@H](Cc1ccccc1)C(=O)O` (some centres not stated) showed an IC50 greater than 200 µM.
On to `CSCC[C@H](NC(=O)[C@@H](NC(C)=O)C(C)C)C(=O)NC(CC(C)C)C(O)CC(=O)N[C@H](C(=O)O)C(C)C` (some centres not stated), for which the IC50 is greater than 100 µM.
Under `CSCC[C@H](NC(=O)[C@@H](NC(C)=O)C(C)C)C(=O)N[C@@H](CC(C)C)C(O)C[C@H](C(=O)N[C@@H](C)C(=O)N[C@@H](CCC(=O)O)C(=O)N[C@@H](Cc1ccccc1)C(=O)O)C(C)C` (some centres not stated) (Ac-VM[LeuΨ(ξCHOHCH2)Val]AEF-OH) stands 0.02 µM; under `CSCC[C@H](NC(=O)[C@@H](NC(C)=O)C(C)C)C(=O)N[C@@H](CC(C)C)C(O)CC(=O)N[C@@H](CC(=O)O)C(=O)N[C@@H](C)C(=O)N[C@@H](CCC(=O)O)C(=O)N[C@@H](C)C(=O)O` (some centres not stated) (Ac-VM[Sta(3ξ)]DAEA-OH), greater than 100 µM.
`CSCC[C@H](NC(=O)[C@@H](NC(C)=O)C(C)C)C(=O)N[C@@H](CC(C)C)C(O)CC(=O)N[C@H](C(=O)N[C@@H](C)C(=O)N[C@@H](C)C(=O)N[C@@H](Cc1ccccc1)C(=O)O)C(C)C` (some centres not stated) (Ac-VM[Sta(3ξ)]VAAF-OH) showed an IC50 of 2 µM.
Under `CSCC[C@H](NC(=O)[C@@H](NC(C)=O)C(C)C)C(=O)N[C@@H](CC(C)C)C(O)CC(=O)N[C@H](C(=O)N[C@@H](C)C(=O)N[C@@H](CCC(=O)O)C(=O)N[C@@H](C)C(=O)O)C(C)C` (some centres not stated) (Ac-VM[Sta(3ξ)]VAEA-OH) stands 1.2 µM; under `CSCC[C@H](NC(=O)[C@@H](NC(C)=O)C(C)C)C(=O)N[C@@H](CC(C)C)C(O)CC(=O)N[C@H](C(=O)N[C@@H](C)C(=O)N[C@@H](CCC(=O)O)C(=O)N[C@@H](C)C(=O)O)C(C)(C)C` (some centres not stated) (Ac-VM[Sta(3ξ)][Tle]AEA-OH), 20 µM.
On to `CSCC[C@H](NC(=O)[C@@H](NC(C)=O)C(C)C)C(=O)NC(CC(C)C)C(O)CC(=O)N[C@@H](C)C(=O)N[C@@H](C)C(=O)N[C@@H](CCC(=O)O)C(=O)N[C@@H](Cc1ccccc1)C(=O)O` (some centres not stated) (Ac-VM[X1]AAEF-OH), for which the IC50 was determined as 5 µM.
`CSCC[C@H](NC(=O)[C@@H](NC(C)=O)C(C)C)C(=O)NC(CC(C)C)C(O)CC(=O)N[C@@H](Cc1ccccc1)C(=O)N[C@@H](C)C(=O)N[C@@H](CCC(=O)O)C(=O)N[C@@H](Cc1ccccc1)C(=O)O` (some centres not stated) (Ac-VM[X1]FAEF-OH) registered an IC50 of 15 µM.
`CSCC[C@H](NC(=O)[C@@H](NC(C)=O)C(C)C)C(=O)NC(CC(C)C)C(O)CC(=O)N[C@H](C(=O)N[C@@H](C)C(=O)O)C(C)C` (some centres not stated) (Ac-VM[X1]VA-OH) showed an IC50 greater than 100 µM.
Under `CSCC[C@H](NC(=O)[C@@H](NC(C)=O)C(C)C)C(=O)NC(CC(C)C)C(O)CC(=O)N[C@H](C(=O)N[C@@H](C)C(=O)N[C@@H](CCC(=O)O)C(=O)O)C(C)C` (some centres not stated) (Ac-VM[X1]VAE-OH) stands 1 µM; under `CSCC[C@H](NC(=O)[C@@H](NC(C)=O)C(C)C)C(=O)NC(CC(C)C)C(O)CC(=O)N[C@H](C(=O)N[C@@H](C)C(=O)N[C@@H](CCC(=O)O)C(=O)N[C@@H](Cc1ccccc1)C(=O)O)C(C)C` (some centres not stated) (Ac-VM[X1]VAEF-OH), 0.3 µM; under `CSCC[C@H](NC(=O)[C@@H](NC(C)=O)C(C)C)C(=O)N[C@@H](Cc1ccccc1)C(O)CC(=O)N[C@H](C(=O)N[C@@H](C)C(=O)N[C@@H](CCC(=O)O)C(=O)N[C@@H](Cc1ccccc1)C(=O)O)C(C)C` (some centres not stated) (Ac-VM[X4]VAEF-OH), 0.5 µM.
`CSCC[C@H](NC(=O)[C@@H](NC(C)=O)C(C)C)C(=O)N[C@@H](CC1CCCCC1)C(O)CC(=O)N[C@H](C(=O)N[C@@H](C)C(=O)N[C@@H](CCC(=O)O)C(=O)N[C@@H](Cc1ccccc1)C(=O)O)C(C)C` (some centres not stated) (Ac-VM[X5]VAEF-OH) returned an IC50 of 5 µM.
The compound `CC(=O)N[C@H](C(=O)N[C@@H](CC(N)=O)C(=O)NC(CC(C)C)C(O)CC(=O)N[C@H](C(=O)N[C@@H](C)C(=O)N[C@@H](CCC(=O)O)C(=O)N[C@@H](Cc1ccccc1)C(=O)O)C(C)C)C(C)C` (some centres not stated) (Ac-VN[X1]VAEF-OH) yielded an IC50 of 0.5 µM.
For the compound `CC(C)C[C@H](NC(=O)[C@H](CC(N)=O)NC(=O)[C@H](C)NC(=O)[C@@H](N)CCC(=O)O)C(O)CC(=O)N[C@H](C(=O)N[C@@H](C)C(=O)N[C@@H](CCC(=O)O)C(=O)N[C@@H](Cc1ccccc1)C(=O)O)C(C)C` (some centres not stated) (H-EAN[Sta(3ξ)]VAEF-OH), the IC50 came to 2.5 µM.
Regarding `CC(C)C[C@H](NC(=O)[C@H](CC(N)=O)NC(=O)[C@@H](NC(=O)[C@@H](N)CCC(=O)O)C(C)C)C(O)CC(=O)N[C@H](C(=O)N[C@@H](C)C(=O)N[C@@H](CCC(=O)O)C(=O)N[C@@H](Cc1ccccc1)C(=O)O)C(C)C` (some centres not stated) (H-EVN[Sta(3ξ)]VAEF-OH), the IC50 was 0.04 µM.
Next, `CC[C@H](C)[C@H](NC(=O)[C@H](CCC(=O)O)NC(=O)[C@H](CCC(=O)O)NC(=O)[C@@H](NC(=O)[C@@H](N)CCCCN)[C@@H](C)O)C(=O)N[C@@H](CO)C(=O)N[C@@H](CCC(=O)O)C(=O)N[C@H](C(=O)N[C@@H](CC(N)=O)C(=O)N[C@@H](CC(C)C)[C@@H](O)CC(=O)N[C@@H](C)C(=O)N[C@@H](C)C(=O)N[C@@H](CCC(=O)O)C(=O)N[C@@H](Cc1ccccc1)C(=O)O)C(C)C` (H-KTEEISEVN[Sta]AAEF-OH): 0.5 µM; `CC[C@H](C)[C@H](NC(=O)[C@H](CCC(=O)O)NC(=O)[C@H](CCC(=O)O)NC(=O)[C@@H](NC(=O)[C@@H](N)CCCCN)[C@@H](C)O)C(=O)N[C@@H](CO)C(=O)N[C@@H](CCC(=O)O)C(=O)N[C@H](C(=O)N[C@@H](CC(N)=O)C(=O)N[C@@H](CC(C)C)[C@@H](O)CC(=O)N[C@@H](CC(=O)O)C(=O)N[C@@H](C)C(=O)N[C@@H](CCC(=O)O)C(=O)N[C@@H](Cc1ccccc1)C(=O)O)C(C)C` (H-KTEEISEVN[Sta]DAEF-OH): 40 µM; `CC[C@H](C)[C@H](NC(=O)[C@H](CCC(=O)O)NC(=O)[C@H](CCC(=O)O)NC(=O)[C@@H](NC(=O)[C@@H](N)CCCCN)[C@@H](C)O)C(=O)N[C@@H](CO)C(=O)N[C@@H](CCC(=O)O)C(=O)N[C@H](C(=O)N[C@@H](CC(N)=O)C(=O)N[C@@H](CC(C)C)[C@@H](O)CC(=O)N[C@@H](CC(=O)O)C(=O)N[C@@H](C)C(=O)N[C@@H](CCC(=O)O)C(=O)N[C@@H](Cc1ccccc1)C(=O)N[C@@H](CCCN=C(N)N)C(=O)O)C(C)C` (H-KTEEISEVN[Sta]DAEFR-OH): 60 µM.
Next, `CC[C@H](C)[C@H](NC(=O)[C@H](CCC(=O)O)NC(=O)[C@H](CCC(=O)O)NC(=O)[C@@H](NC(=O)[C@@H](N)CCCCN)[C@@H](C)O)C(=O)N[C@@H](CO)C(=O)N[C@@H](CCC(=O)O)C(=O)N[C@H](C(=O)N[C@@H](CC(N)=O)C(=O)N[C@@H](CC(C)C)[C@@H](O)CC(=O)N[C@H](C(=O)N[C@@H](C)C(=O)N[C@@H](CCC(=O)O)C(=O)N[C@@H](Cc1ccccc1)C(=O)O)C(C)C)C(C)C` (H-KTEEISEVN[Sta]VAEF-OH): 0.03 µM.
Next, `CC[C@H](C)[C@H](NC(=O)[C@H](CCC(=O)O)NC(=O)[C@H](CCC(=O)O)NC(=O)[C@@H](NC(=O)[C@@H](N)CCCCN)[C@@H](C)O)C(=O)N[C@@H](CO)C(=O)N[C@@H](CCC(=O)O)C(=O)N[C@H](C(=O)N[C@@H](CC(N)=O)C(=O)N[C@@H](CC(C)C)[C@H](CC(=O)N[C@@H](CC(=O)O)C(=O)N[C@@H](C)C(=O)N[C@@H](CCC(=O)O)C(=O)N[C@@H](Cc1ccccc1)C(=O)O)OC(C)=O)C(C)C` (H-KTEEISEVN[X2]DAEF-OH): greater than 200 µM; `CC[C@H](C)[C@H](NC(=O)[C@H](CCC(=O)O)NC(=O)[C@H](CCC(=O)O)NC(=O)[C@@H](NC(=O)[C@@H](N)CCCCN)[C@@H](C)O)C(=O)N[C@@H](CO)C(=O)N[C@@H](CCC(=O)O)C(=O)N[C@H](C(=O)N[C@@H](CC(N)=O)C(=O)N[C@@H](CC(C)C)[C@H](O)CC(=O)N[C@@H](CC(=O)O)C(=O)N[C@@H](C)C(=O)N[C@@H](CCC(=O)O)C(=O)N[C@@H](Cc1ccccc1)C(=O)O)C(C)C` (H-KTEEISEVN[X3]DAEF-OH): greater than 200 µM.
`CC(C)CC(NC(=O)[C@@H](N)CC(N)=O)C(O)CC(=O)N[C@H](C(=O)N[C@@H](C)C(=O)N[C@@H](CCC(=O)O)C(=O)N[C@@H](Cc1ccccc1)C(=O)O)C(C)C` (some centres not stated) (H-N[X1]VAEF-OH): the IC50 is greater than 150 µM.
`CC(C)C[C@H](NC(=O)[C@H](CC(N)=O)NC(=O)[C@@H](N)C(C)C)C(O)CC(=O)N[C@H](C(=O)N[C@@H](C)C(=O)N[C@@H](CCC(=O)O)C(=O)N[C@@H](Cc1ccccc1)C(=O)O)C(C)C` (some centres not stated) (H-VN[Sta(3ξ)]VAEF-OH) had a concentration for half-maximal inhibition (IC50) of 9 µM.
Turning to H-TNIKTEEISEVNADAEFR-OH, the IC50 is greater than 200 µM.
Next, H-TNIKTEEISEVNEDAEFR-OH: greater than 200 µM; H-TNIKTEEISEVNFDAEFR-OH: greater than 200 µM.
Under H-TNIKTEEISEVNGDAEFR-OH stands greater than 200 µM; under H-TNIKTEEISEVNHDAEFR-OH, greater than 200 µM.
Take H-TNIKTEEISEVNLAAEFR-OH: the IC50 was greater than 200 µM.
Next, H-TNIKTEEISEVNLDAEFR-OH: greater than 200 µM; H-TNIKTEEISEVNLFAEFR-OH: 40 µM; H-TNIKTEEISEVNLGAEFR-OH: 119 µM.
Under H-TNIKTEEISEVNLKAEFR-OH stands 40 µM; under H-TNIKTEEISEVNLLAEFR-OH, 45 µM; under H-TNIKTEEISEVNLVAEFR-OH, 3 µM.
H-TNIKTEEISEVNMDAEFR-OH registered a concentration for half-maximal inhibition (IC50) greater than 200 µM.
H-TNIKTEEISEVNRDAEFR-OH registered an IC50 greater than 200 µM.
Next, H-TNIKTEEISEVNTDAEFR-OH: greater than 200 µM; H-TNIKTEEISEVNVDAEFR-OH: greater than 200 µM.

(Values after ChEMBL document CHEMBL1135590, “Design of substrate-based inhibitors of human beta-secretase” (J Med Chem, 2002).)
